Legend:
Assay type in all cases: ADME, organism-based
Mus musculus [1] = assay: In vivo biodistribution of radiolabeled [99mTc]-N4IPA in mice tumor bearing S180 tumor cell line for 30 minutes; conditions: ccrf s-180, 0.5 h
Mus musculus [2] = assay: In vivo biodistribution of radiolabeled [99mTc]N4IPA in mice tumor/muscle bearing S180 tumor cell line for 8 hours; conditions: ccrf s-180, 8 h
Mus musculus [3] = assay: In vivo biodistribution of radiolabeled [99mTc]-N4IPA in mice lung bearing S180 tumor cell line for 2 hours; conditions: ccrf s-180, 2 h
Mus musculus [4] = assay: In vivo biodistribution of radiolabeled [99mTc]N4IPA in mice tumor/blood bearing S180 tumor cell line for 4 hours; conditions: ccrf s-180, 4 h
Mus musculus [5] = assay: In vivo biodistribution of radiolabeled [99mTc]-N4IPA in mice spleen bearing S180 tumor cell line for 4 hours; conditions: ccrf s-180, 4 h
Mus musculus [6] = assay: In vivo biodistribution of radiolabeled [99mTc]-N4IPA in mice tumor/heart bearing S180 tumor cell line for 4 hours; conditions: ccrf s-180, 4 h
Mus musculus [7] = assay: In vivo biodistribution of radiolabeled [99mTc]-N4IPA in mice tumor/liver bearing S180 tumor cell line for 8 hours; conditions: ccrf s-180, 8 h
Mus musculus [8] = assay: In vivo biodistribution of radiolabeled [99mTc]-N4IPA in mice muscle bearing S180 tumor cell line for 4 hours; conditions: ccrf s-180, 4 h
Mus musculus [9] = assay: In vivo biodistribution of radiolabeled [99mTc]N4IPA in mice tumor/blood bearing S180 tumor cell line for 1 hour; conditions: ccrf s-180, 1 h
Mus musculus [10] = assay: In vivo biodistribution of radiolabeled [99mTc]N4IPA in mice lung bearing S180 tumor cell line for 8 hours; conditions: ccrf s-180, 8 h
Mus musculus [11] = assay: In vivo biodistribution of radiolabeled [99mTc]N4IPA in mice tumor/heart bearing S180 tumor cell line for 1 hour; conditions: ccrf s-180, 1 h
Mus musculus [12] = assay: In vivo biodistribution of radiolabeled [99mTc]N4IPA in mice brain bearing S180 tumor cell line for 2 hours; conditions: ccrf s-180, 2 h
Mus musculus [13] = assay: In vivo biodistribution of radiolabeled [99mTc]-N4IPA in mice tumor/muscle bearing S180 tumor cell line for 4 hours; conditions: ccrf s-180, 4 h
Mus musculus [14] = assay: In vivo biodistribution of radiolabeled [99mTc]N4IPA in mice muscle bearing S180 tumor cell line for 2 hours; conditions: ccrf s-180, 2 h
Mus musculus [15] = assay: In vivo biodistribution of radiolabeled [99mTc]-N4IPA in mice tumor/muscle bearing S180 tumor cell line for 2 hours; conditions: ccrf s-180, 2 h
Mus musculus [16] = assay: In vivo biodistribution of radiolabeled [99mTc]-N4IPA in mice blood bearing S180 tumor cell line for 8 hours; conditions: ccrf s-180, 8 h
Mus musculus [17] = assay: In vivo biodistribution of radiolabeled [99mTc]N4IPA in mice kidney bearing S180 tumor cell line for 2 hours; conditions: ccrf s-180, 2 h
Mus musculus [18] = assay: In vivo biodistribution of radiolabeled [99mTc]-N4IPA in mice kidney bearing S180 tumor cell line for 30 minutes; conditions: ccrf s-180, 0.5 h
Mus musculus [19] = assay: In vivo biodistribution of radiolabeled [99mTc]N4IPA in mice brain bearing S180 tumor cell line for 4 hours; conditions: ccrf s-180, 4 h
Mus musculus [20] = assay: In vivo biodistribution of radiolabeled [99mTc]-N4IPA in mice tumor bearing S180 tumor cell line for 1 hour; conditions: ccrf s-180, 1 h
Mus musculus [21] = assay: In vivo biodistribution of radiolabeled [99mTc]N4IPA in mice liver bearing S180 tumor cell line for 2 hours; conditions: ccrf s-180, 2 h
Mus musculus [22] = assay: In vivo biodistribution of radiolabeled [99mTc]-N4IPA in mice tumor/lung bearing S180 tumor cell line for 1 hour; conditions: ccrf s-180, 1 h
Mus musculus [23] = assay: In vivo biodistribution of radiolabeled [99mTc]N4IPA in mice tumor/muscle bearing S180 tumor cell line for 1 hour; conditions: ccrf s-180, 1 h
Mus musculus [24] = assay: In vivo biodistribution of radiolabeled [99mTc]N4IPA in mice tumor/blood bearing S180 tumor cell line for 8 hours; conditions: ccrf s-180, 8 h
Mus musculus [25] = assay: In vivo biodistribution of radiolabeled [99mTc]-N4IPA in mice tumor/lung bearing S180 tumor cell line for 30 minutes; conditions: ccrf s-180, 0.5 h
Mus musculus [26] = assay: In vivo biodistribution of radiolabeled [99mTc]-N4IPA in mice spleen bearing S180 tumor cell line for 2 hours; conditions: ccrf s-180, 2 h
Mus musculus [27] = assay: In vivo biodistribution of radiolabeled [99mTc]-N4IPA in mice muscle bearing S180 tumor cell line for 1 hour; conditions: ccrf s-180, 1 h
Mus musculus [28] = assay: In vivo biodistribution of radiolabeled [99mTc]-N4IPA in mice blood bearing S180 tumor cell line for 30 minutes; conditions: ccrf s-180, 0.5 h
Mus musculus [29] = assay: In vivo biodistribution of radiolabeled [99mTc]N4IPA in mice tumor/lung bearing S180 tumor cell line for 2 hours; conditions: ccrf s-180, 2 h
Mus musculus [30] = assay: In vivo biodistribution of radiolabeled [99mTc]-N4IPA in mice muscle bearing S180 tumor cell line for 8 hours; conditions: ccrf s-180, 8 h
Mus musculus [31] = assay: In vivo biodistribution of radiolabeled [99mTc]N4IPA in mice tumor/muscle bearing S180 tumor cell line for 30 minutes; conditions: ccrf s-180, 0.5 h
Mus musculus [32] = assay: In vivo biodistribution of radiolabeled [99mTc]N4IPA in mice liver bearing S180 tumor cell line for 1 hour; conditions: ccrf s-180, 1 h
Mus musculus [33] = assay: In vivo biodistribution of radiolabeled [99mTc]-N4IPA in mice tumor bearing S180 tumor cell line for 4 hours; conditions: ccrf s-180, 4 h
Mus musculus [34] = assay: In vivo biodistribution of radiolabeled [99mTc]-N4IPA in mice lung bearing S180 tumor cell line for 1 hour; conditions: ccrf s-180, 1 h
Mus musculus [35] = assay: In vivo biodistribution of radiolabeled [99mTc]N4IPA in mice heart bearing S180 tumor cell line for 2 hours; conditions: ccrf s-180, 2 h

With `N/C(CCn1cnc([N+](=O)[O-])c1)=N\O` the Biodistribution (Mus musculus [1]) was 0.55 % g-1, the Biodistribution (Mus musculus [2]) was 8.83 % g-1 and the Biodistribution (Mus musculus [3]) was 0.17 % g-1. For the same compound, the Biodistribution (Mus musculus [4]) was 1.88 % g-1, the Biodistribution (Mus musculus [5]) was 0.08 % g-1 and the Biodistribution (Mus musculus [6]) was 4.47 % g-1. It also gave a Biodistribution (Mus musculus [7]) of 1.41 % g-1, a Biodistribution (Mus musculus [8]) of 0.04 % g-1 and a Biodistribution (Mus musculus [9]) of 1.19 % g-1. It also gave a Biodistribution (Mus musculus [10]) of 0.1 % g-1, a Biodistribution (Mus musculus [11]) of 3.22 % g-1 and a Biodistribution (Mus musculus [12]) of 0.04 % g-1. For the same compound, the Biodistribution (Mus musculus [13]) was 8.6 % g-1, the Biodistribution (Mus musculus [14]) was 0.05 % g-1 and the Biodistribution (Mus musculus [15]) was 8.12 % g-1. For the same compound, the Biodistribution (Mus musculus [16]) was 0.15 % g-1, the Biodistribution (Mus musculus [17]) was 3.8 % g-1 and the Biodistribution (Mus musculus [18]) was 5.63 % g-1. It also gave a Biodistribution (Mus musculus [19]) of 0.04 % g-1, a Biodistribution (Mus musculus [20]) of 0.45 % g-1 and a Biodistribution (Mus musculus [21]) of 0.46 % g-1. The Biodistribution (Mus musculus [22]) was 2.06 % g-1, the Biodistribution (Mus musculus [23]) was 4.25 % g-1 and the Biodistribution (Mus musculus [24]) was 2.06 % g-1. It also gave a Biodistribution (Mus musculus [25]) of 1.42 % g-1, a Biodistribution (Mus musculus [26]) of 0.09 % g-1 and a Biodistribution (Mus musculus [27]) of 0.11 % g-1. It also gave a Biodistribution (Mus musculus [28]) of 0.7 % g-1, a Biodistribution (Mus musculus [29]) of 2.24 % g-1 and a Biodistribution (Mus musculus [30]) of 0.04 % g-1. It also gave a Biodistribution (Mus musculus [31]) of 3.66 % g-1, a Biodistribution (Mus musculus [32]) of 0.79 % g-1 and a Biodistribution (Mus musculus [33]) of 0.34 % g-1. For the same compound, the Biodistribution (Mus musculus [34]) was 0.22 % g-1 and the Biodistribution (Mus musculus [35]) was 0.12 % g-1.

Source: ChEMBL document CHEMBL1147434, “Synthesis and biological results of the technetium-99m-labeled 4-nitroimidazole for imaging tumor hypoxia” (Bioorg Med Chem Lett, 2004)
